Reference: patent US10040781B2, “Tank-binding kinase inhibitor compounds” (Gilead Sciences, Inc., priority 2014, dated 2018)

Assays:
TBK1 = TBK1 (Homo sapiens (Human), UniProt Q9UHD2); assay: TBK1 TR-FRET enzymatic assay;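 further: phosphorylation of a biotinylated Ser/Thr peptide by purified full-length recombinant TBK1, read by TR-FRET after 240 min at 25 °C, IC50 is the geometric mean of at least four runs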
IKKε = IKKε (Homo sapiens (Human), UniProt Q14164); assay: IKKε TR-FRET enzymatic assay; format: biochemical; conditions: read-out: IKKe IC50
hJAK2 = hJAK2 (Homo sapiens (Human), UniProt O60674); assay: hJAK2 LANCE TR-FRET enzymatic assay; format: biochemical; conditions: read-out: JAK2 IC50
Chain of hJAK2 (O60674 whole entry): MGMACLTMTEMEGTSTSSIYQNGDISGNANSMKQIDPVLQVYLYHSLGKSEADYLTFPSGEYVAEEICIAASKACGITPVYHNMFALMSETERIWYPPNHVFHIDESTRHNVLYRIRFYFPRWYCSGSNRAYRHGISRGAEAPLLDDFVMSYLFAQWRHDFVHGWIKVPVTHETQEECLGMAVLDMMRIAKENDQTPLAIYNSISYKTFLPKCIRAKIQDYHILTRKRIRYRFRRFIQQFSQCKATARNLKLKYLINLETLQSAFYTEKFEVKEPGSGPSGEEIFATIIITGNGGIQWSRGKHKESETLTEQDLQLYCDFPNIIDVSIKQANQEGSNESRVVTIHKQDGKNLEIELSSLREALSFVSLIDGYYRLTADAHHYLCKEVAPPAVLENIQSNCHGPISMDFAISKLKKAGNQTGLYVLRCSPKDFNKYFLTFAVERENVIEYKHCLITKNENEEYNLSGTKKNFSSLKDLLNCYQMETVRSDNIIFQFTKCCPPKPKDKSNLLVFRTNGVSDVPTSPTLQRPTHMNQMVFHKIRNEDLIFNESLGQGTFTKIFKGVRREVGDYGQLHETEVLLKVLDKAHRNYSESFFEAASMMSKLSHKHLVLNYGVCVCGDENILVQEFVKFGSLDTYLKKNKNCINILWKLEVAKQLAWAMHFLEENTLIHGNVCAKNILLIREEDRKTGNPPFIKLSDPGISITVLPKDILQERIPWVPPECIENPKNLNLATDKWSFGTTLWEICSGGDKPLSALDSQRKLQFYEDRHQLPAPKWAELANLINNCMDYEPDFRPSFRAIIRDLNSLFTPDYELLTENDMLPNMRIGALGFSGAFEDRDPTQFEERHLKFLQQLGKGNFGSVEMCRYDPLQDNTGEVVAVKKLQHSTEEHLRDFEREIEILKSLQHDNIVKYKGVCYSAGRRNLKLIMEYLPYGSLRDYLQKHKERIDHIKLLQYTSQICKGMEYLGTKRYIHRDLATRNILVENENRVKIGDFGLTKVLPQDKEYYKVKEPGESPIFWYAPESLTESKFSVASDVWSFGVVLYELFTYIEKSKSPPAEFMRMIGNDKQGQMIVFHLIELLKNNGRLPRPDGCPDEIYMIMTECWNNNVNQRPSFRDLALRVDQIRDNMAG

Chain of TBK1 (Q9UHD2 whole entry): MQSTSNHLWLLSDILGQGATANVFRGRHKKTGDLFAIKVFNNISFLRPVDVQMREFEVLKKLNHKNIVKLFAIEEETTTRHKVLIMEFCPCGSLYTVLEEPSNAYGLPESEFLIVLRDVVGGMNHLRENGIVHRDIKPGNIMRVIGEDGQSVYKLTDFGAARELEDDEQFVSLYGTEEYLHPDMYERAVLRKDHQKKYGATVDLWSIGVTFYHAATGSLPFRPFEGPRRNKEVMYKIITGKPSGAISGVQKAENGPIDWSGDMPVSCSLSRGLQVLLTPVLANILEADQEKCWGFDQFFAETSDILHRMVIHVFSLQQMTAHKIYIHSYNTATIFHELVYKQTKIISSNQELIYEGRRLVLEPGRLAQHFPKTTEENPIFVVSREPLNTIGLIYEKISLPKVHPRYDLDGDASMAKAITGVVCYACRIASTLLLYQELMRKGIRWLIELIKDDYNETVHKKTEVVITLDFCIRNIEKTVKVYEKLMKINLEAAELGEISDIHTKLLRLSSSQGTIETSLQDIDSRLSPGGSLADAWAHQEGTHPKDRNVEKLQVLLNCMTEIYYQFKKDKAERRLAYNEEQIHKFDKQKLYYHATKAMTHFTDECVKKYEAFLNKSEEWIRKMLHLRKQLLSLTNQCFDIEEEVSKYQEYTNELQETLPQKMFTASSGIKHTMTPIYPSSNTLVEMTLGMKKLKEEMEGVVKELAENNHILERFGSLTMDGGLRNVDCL
Chain of IKKε (Q14164 whole entry): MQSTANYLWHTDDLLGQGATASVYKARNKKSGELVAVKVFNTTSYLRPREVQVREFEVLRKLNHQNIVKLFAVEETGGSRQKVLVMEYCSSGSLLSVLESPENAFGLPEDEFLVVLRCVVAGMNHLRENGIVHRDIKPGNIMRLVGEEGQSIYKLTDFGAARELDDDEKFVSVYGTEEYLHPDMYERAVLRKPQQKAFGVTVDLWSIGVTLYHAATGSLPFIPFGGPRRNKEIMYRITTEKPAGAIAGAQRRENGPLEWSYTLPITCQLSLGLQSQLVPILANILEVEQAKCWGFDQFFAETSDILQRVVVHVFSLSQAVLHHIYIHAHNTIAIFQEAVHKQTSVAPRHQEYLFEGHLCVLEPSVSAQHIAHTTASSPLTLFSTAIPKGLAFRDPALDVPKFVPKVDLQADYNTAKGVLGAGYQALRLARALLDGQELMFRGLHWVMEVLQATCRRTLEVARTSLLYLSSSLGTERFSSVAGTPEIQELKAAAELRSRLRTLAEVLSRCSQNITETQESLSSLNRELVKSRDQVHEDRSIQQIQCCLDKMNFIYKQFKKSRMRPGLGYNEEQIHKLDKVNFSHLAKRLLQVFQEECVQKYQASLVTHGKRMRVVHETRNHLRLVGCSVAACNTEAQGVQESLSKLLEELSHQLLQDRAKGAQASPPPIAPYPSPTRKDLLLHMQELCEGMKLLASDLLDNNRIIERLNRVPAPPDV

SMILES | IC50 (TBK1) [nM] | IC50 (IKKε) [nM] | IC50 (hJAK2) [nM]
N#Cc1cc(-c2ncnc(Nc3ccc(N4CCN(C5COC5)CC4)cc3)n2)ccc1OC1CCCCC1 [Example 217, 2-(cyclohexyloxy)-5-(4-((4-(4-(oxetan-3-yl)piperazin-1-yl)phenyl)amino)-1,3,5-triazin-2-yl)benzonitrile] | 4 | 14 | 980
C[C@@H](O)C(=O)N1CCC(Oc2ccc(-c3ncnc(Nc4ccc(N5CCN(C6COC6)CC5)cc4)n3)cc2C#N)CC1 [Example 219, (R)-2-((1-(2-hydroxypropanoyl)piperidin-4-yl)oxy)-5-(4-((4-(4-(oxetan-3-yl)piperazin-1-yl)phenyl)amino)-1,3,5-triazin-2-yl)benzonitrile] | 44 | 126 | 626
C[C@H]1C[C@H](Oc2ccc(-c3ncnc(Nc4ccc(N5CCN(C6COC6)CC5)cc4)n3)cc2C#N)CCN1C(=O)CO [Example 221, 2-(((2S,4R)-1-(2-hydroxyacetyl)-2-methylpiperidin-4-yl)oxy)-5-(4-((4-(4-(oxetan-3-yl)piperazin-1-yl)phenyl)amino)-1,3,5-triazin-2-yl)benzonitrile] | 18 | 68 | 488
C[C@@H]1C[C@H](Oc2ccc(-c3ncnc(Nc4ccc(N5CCN(C6COC6)CC5)cc4)n3)cc2C#N)CCN1C(=O)CO [Example 222, 2-(((2R,4R)-1-(2-hydroxyacetyl)-2-methylpiperidin-4-yl)oxy)-5-(4-((4-(4-(oxetan-3-yl)piperazin-1-yl)phenyl)amino)-1,3,5-triazin-2-yl)benzonitrile] | 21 | 60 | 182
C[C@H](O)C(=O)N1CCC(Oc2ccc(-c3ncnc(Nc4ccc(N5CCO[C@@H](CO)C5)cc4)n3)cc2C#N)CC1 [Example 225, 5-(4-((4-((R)-2-(hydroxymethyl)morpholino)phenyl)amino)-1,3,5-triazin-2-yl)-2-((1-((S)-2-hydroxypropanoyl)piperidin-4-yl)oxy)benzonitrile] | 8 | 22 | ≥ 1000
N#Cc1cc(-c2ncnc(Nc3ccc(N4CCO[C@@H](CO)C4)cc3)n2)ccc1OC1CCNCC1(F)F (stereo partly drawn) [Example 226, 2-((3,3-difluoropiperidin-4-yl)oxy)-5-(4-((4-((R)-2-(hydroxymethyl)morpholino)phenyl)amino)-1,3,5-triazin-2-yl)benzonitrile] | 5 | 29 | 311
N#Cc1cc(-c2ncnc(Nc3ccc(N4CCO[C@@H](CO)C4)cc3)n2)ccc1OC1CCN(C(=O)CO)CC1 [Example 227, (R)-2-((1-(2-hydroxyacetyl)piperidin-4-yl)oxy)-5-(4-((4-(2-(hydroxymethyl)morpholino)phenyl)amino)-1,3,5-triazin-2-yl)benzonitrile] | 2 | 4 | 333
C[C@H](O)C(=O)N1CCC(Oc2ccc(-c3ncnc(Nc4ccc(N5CCO[C@@H](CO)C5)cc4)n3)cc2C#N)C(F)(F)C1 (stereo partly drawn) [Example 228, 2-((3,3-difluoro-1-((S)-2-hydroxypropanoyl)piperidin-4-yl)oxy)-5-(4-((4-((R)-2-(hydroxymethyl)morpholino)phenyl)amino)-1,3,5-triazin-2-yl)benzonitrile] | 1 | 2 | 206
CC(=O)N1CC[C@H](Oc2ccc(-c3ncnc(Nc4ccc(N5CCO[C@@H](CO)C5)cc4)n3)cc2C#N)C(F)(F)C1 [Example 230, 2-(((5)-1-acetyl-3,3-difluoropiperidin-4-yl)oxy)-5-(4-((4-((R)-2-(hydroxymethyl)morpholino)phenyl)amino)-1,3,5-triazin-2-yl)benzonitrile] | 4 | 2 | 233
C[C@H](O)C(=O)N1CC[C@H](Oc2ccc(-c3ncnc(Nc4ccc(N5CCO[C@@H](CO)C5)cc4)n3)cc2C#N)[C@H](F)C1 [Example 231, 2-(((3R,4S)-3-fluoro-1-((S)-2-hydroxypropanoyl)piperidin-4-yl)oxy)-5-(4-((4-((R)-2-(hydroxymethyl)morpholino)phenyl)amino)-1,3,5-triazin-2-yl)benzonitrile] | 3 | 1 | 486
N#Cc1cc(-c2ncnc(Nc3ccc(N4CCO[C@H](CO)C4)cc3)n2)ccc1O[C@H]1CCN(C(=O)CO)C[C@H]1F [Example 232, 2-(((3R,4S)-3-fluoro-1-(2-hydroxyacetyl)piperidin-4-yl)oxy)-5-(4-((4-((S)-2-(hydroxymethyl)morpholino)phenyl)amino)-1,3,5-triazin-2-yl)benzonitrile] | 2 | 1 | 128
C[C@H](O)C(=O)N1CC[C@H](Oc2ccc(-c3ncnc(Nc4ccc(N5CCO[C@H](CO)C5)cc4)n3)cc2C#N)[C@H](F)C1 [Example 233, 2-(((3R,4S)-3-fluoro-1-((S)-2-hydroxypropanoyl)piperidin-4-yl)oxy)-5-(4-((4-((S)-2-(hydroxymethyl)morpholino)phenyl)amino)-1,3,5-triazin-2-yl)benzonitrile] | 2 | 1 | 333
N#Cc1cc(-c2ncnc(Nc3ccc(N4CCN(C5COC5)CC4)cc3)n2)ccc1O[C@@H]1CCNC[C@H]1F [Example 236, 2-(((3R,4R)-3-fluoropiperidin-4-yl)oxy)-5-(4-((4-(4-(oxetan-3-yl)piperazin-1-yl)phenyl)amino)-1,3,5-triazin-2-yl)benzonitrile] | 58 | 233 | 723
N#Cc1cc(-c2ncnc(Nc3ccc(N4CCN(C5COC5)CC4)cc3)n2)ccc1O[C@H]1CCNC[C@H]1F [Example 239, 2-(((3R,4S)-3-fluoropiperidin-4-yl)oxy)-5-(4-((4-(4-(oxetan-3-yl)piperazin-1-yl)phenyl)amino)-1,3,5-triazin-2-yl)benzonitrile] | 8 | 59 | 409
N#Cc1cc(-c2ncnc(Nc3ccc(N4CCN(C5COC5)CC4)c(F)c3)n2)ccc1O[C@H]1CCN(C(=O)CO)C[C@H]1F [Example 240, 2-(((3R,4S)-3-fluoro-1-(2-hydroxyacetyl)piperidin-4-yl)oxy)-5-(4-((3-fluoro-4-(4-(oxetan-3-yl)piperazin-1-yl)phenyl)amino)-1,3,5-triazin-2-yl)benzonitrile] | 1 | 1 | 199
C[C@@H]1CN(C2COC2)CCN1c1ccc(Nc2ncnc(-c3ccc(O[C@H]4CCN(C(=O)CO)C[C@H]4F)c(C#N)c3)n2)cc1 [Example 242, 2-(((3R,4S)-3-fluoro-1-(2-hydroxyacetyl)piperidin-4-yl)oxy)-5-(4-((4-((R)-2-methyl-4-(oxetan-3-yl)piperazin-1-yl)phenyl)amino)-1,3,5-triazin-2-yl)benzonitrile] | 2 | 1 | 249
C[C@H]1CN(C2COC2)CCN1c1ccc(Nc2ncnc(-c3ccc(O[C@H]4CCN(C(=O)CO)C[C@H]4F)c(C#N)c3)n2)cc1 [Example 244, 2-(((3R,4S)-3-fluoro-1-(2-hydroxyacetyl)piperidin-4-yl)oxy)-5-(4-((4-((S)-2-methyl-4-(oxetan-3-yl)piperazin-1-yl)phenyl)amino)-1,3,5-triazin-2-yl)benzonitrile] | 3 | 1 | 191
